# Data as given in the NIST ThermoML archive (doi:10.1021/je100749m).
# Numbers after ± are expanded uncertainties.
# Legend:
# [1] = Crystal; DTA
# [2] = Molar enthalpy of transition or fusion; conditions: Crystal; DSC
Normal melting temperature [1],Molar enthalpy of transition or fusion [2],Structure (SMILES)
95.98 ± 0.53 °C,5 ± 0.148 kcal/mol,"O=C(O)CCCC(=O)O [1,5-pentanedioic acid]"
153.16 ± 0.53 °C,8.46 ± 0.237 kcal/mol,"O=C(O)CCCCC(=O)O [1,6-hexanedioic acid]"
122.93 ± 0.53 °C,4.31 ± 0.131 kcal/mol,O=C(O)c1ccccc1 [benzoic acid]
